Experimental data reported in patent publication US11878956B2, “Metal salts and uses thereof” (Inspirna, Inc., priority 2019, dated 2024).
Where two headings read alike, the source gives them in different places.

What was measured:
[1] = cited from earlier work
[2] = cited from earlier work; remark: listed apart in the source
[3] = system: endothelial recruitment; test: inhibition of endothelial recruitment in vitro; format: cell-based
[4] = system: ApoE; test: ApoE gene expression induction in cancer cells; format: cell-based
[5] = system: ApoE; test: ApoE gene expression induction in hPBMCs; format: cell-based, human
[6] = system: melanoma, glioblastoma, TNBC, ovarian cancer, and lung cancer; test: syngeneic and human xenograft mouse tumor models, primary tumor growth; format: in vivo
[7] = biological target: human ether-à-go-go-related gene (hERG) channel (Homo sapiens, UniProt Q12809); test: in vitro hERG assay; format: cell-based
[8] = ECG and heart rate in dogs (safety pharmacology); format: in vivo
[9] = neurobehavioral FOB and respiratory evaluations in rats; format: in vivo
[10] = oral PK in CD-1 mice; format: in vivo
[11] = oral PK in Sprague-Dawley rats; format: in vivo
[12] = oral PK in male Beagle dogs; format: in vivo
[13] = oral PK in Cynomolgus monkeys; format: in vivo
[14] = biological target: CYP3A4 (Homo sapiens, UniProt P08684); test: in vitro metabolism by CYP isoforms; format: in vitro ADME
[15] = system: CYP2E1, CYP2C9, CYP2C19, and possibly CYP2J2; test: in vitro metabolism by CYP isoforms (other substrates); format: in vitro ADME
[16] = biological target: T1, 1A1 (Homo sapiens, UniProt P04798); test: CYP inhibition in vitro; format: in vitro ADME
T1 sequence (P04798 1-512): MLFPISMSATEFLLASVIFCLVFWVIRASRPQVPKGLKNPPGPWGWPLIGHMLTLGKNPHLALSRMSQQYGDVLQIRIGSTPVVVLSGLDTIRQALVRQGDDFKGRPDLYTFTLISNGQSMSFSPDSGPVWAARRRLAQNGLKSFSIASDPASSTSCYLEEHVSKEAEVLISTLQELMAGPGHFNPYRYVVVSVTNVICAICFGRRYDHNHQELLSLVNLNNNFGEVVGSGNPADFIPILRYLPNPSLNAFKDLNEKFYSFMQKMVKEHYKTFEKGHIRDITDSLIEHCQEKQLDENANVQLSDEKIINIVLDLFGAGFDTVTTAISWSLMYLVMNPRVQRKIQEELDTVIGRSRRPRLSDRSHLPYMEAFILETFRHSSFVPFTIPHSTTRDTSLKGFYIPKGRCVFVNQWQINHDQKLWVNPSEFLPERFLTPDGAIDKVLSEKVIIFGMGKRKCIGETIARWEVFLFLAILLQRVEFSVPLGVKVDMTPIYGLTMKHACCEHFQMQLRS

[17] = biological target: T2, 2A6 (Homo sapiens, UniProt P11509); test: CYP inhibition in vitro; format: in vitro ADME
T2 sequence (P11509 1-494): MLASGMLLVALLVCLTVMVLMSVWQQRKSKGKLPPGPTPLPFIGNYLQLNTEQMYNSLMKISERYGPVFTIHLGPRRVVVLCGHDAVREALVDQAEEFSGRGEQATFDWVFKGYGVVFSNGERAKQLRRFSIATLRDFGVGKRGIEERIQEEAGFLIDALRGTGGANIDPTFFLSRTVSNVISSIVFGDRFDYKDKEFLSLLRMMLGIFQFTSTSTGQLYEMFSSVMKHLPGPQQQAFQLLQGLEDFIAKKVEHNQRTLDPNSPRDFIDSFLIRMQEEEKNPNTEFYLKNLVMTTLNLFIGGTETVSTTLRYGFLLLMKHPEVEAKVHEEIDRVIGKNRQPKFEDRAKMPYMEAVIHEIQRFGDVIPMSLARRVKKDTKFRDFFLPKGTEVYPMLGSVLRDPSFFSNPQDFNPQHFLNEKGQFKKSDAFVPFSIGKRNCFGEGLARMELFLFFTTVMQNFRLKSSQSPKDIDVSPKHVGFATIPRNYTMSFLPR

[18] = biological target: 2C9 (Homo sapiens, UniProt P11712); test: CYP inhibition in vitro; format: in vitro ADME
[19] = biological target: 2C19 (Homo sapiens, UniProt P33261); test: CYP inhibition in vitro; format: in vitro ADME
[20] = biological target: 2D6 (Homo sapiens, UniProt P10635); test: CYP inhibition in vitro; format: in vitro ADME
[21] = biological target: 2E1 (Homo sapiens, UniProt P05181); test: CYP inhibition in vitro; format: in vitro ADME
[22] = biological target: 3A4 (Homo sapiens, UniProt P08684); test: CYP inhibition in vitro; format: in vitro ADME
[23] = system: CYP3A; test: CYP3A time-dependent inhibition in vitro; format: in vitro ADME; conditions: testosterone as the substrate
[24] = system: CYP3A; test: CYP induction in cryopreserved hepatocytes; format: in vitro ADME; conditions: primary cultures of cryopreserved hepatocytes (2 donors)
[25] = system: CYP2B6; test: CYP induction in cryopreserved hepatocytes; format: in vitro ADME; conditions: 1 concentration in 1/3 donors
[26] = biological target: P-glucoprotein (P-gp) (Homo sapiens, UniProt P08183); test: efflux transporter inhibition in vitro; format: in vitro ADME
[27] = animal / pre-clinical toxicology studies; format: in vivo
[28] = clinical safety in subjects treated with Compound 1; format: in vivo
[29] = initial solubility assessment in 12 solvents/solvent mixtures; format: physicochemical; conditions: amorphous Compound 1, 12 solvents/solvent mixtures
Experimental: An initial solubility assessment was conducted in 12 solvents/solvent mixtures using amorphous Compound 1. […] Salt screening by cooling, anti-solvent addition, maturation, liquid assisted grinding, neat grinding and evaporation were all investigated. Gums isolated were subjected to heat/cool maturation cycles (room temperature/50° C.), sonication, prolonged storage under vacuum, prolonged storage at 40° C./75% RH, trituration with anti-solvent and liquid assisted grinding (LAG) with water. From extensive salt screening, eight hits were obtained. Amorphous hits with a high glass transition temperature (Tg) were identified from zinc chloride, naphthalene-2-sulfonic acid, 1,5-naphthalene disulfonic acid, and ethane sulfonic acid. One crystalline hit was identified from ethane sulfonic acid. Poorly crystalline material was isolated from calcium hydroxide, magnesium hydroxide and aluminum hydroxide.

[30] = system: CYP1A2; test: CYP induction
[31] = stability of salts of Compound 1 during processing and formulation; conditions: for stability of strong acid salts: readily undergo apparent esterification with alcoholic solvents; for stability towards excipients and/or components of a formulation: salts react with excipients and/or components of a formulation
[32] = Table 6, counterion sources, second set Study 3
[33] = Table 5, counterion sources, first set Study 3

P-glucoprotein (P-gp), sequence (P08183 whole entry): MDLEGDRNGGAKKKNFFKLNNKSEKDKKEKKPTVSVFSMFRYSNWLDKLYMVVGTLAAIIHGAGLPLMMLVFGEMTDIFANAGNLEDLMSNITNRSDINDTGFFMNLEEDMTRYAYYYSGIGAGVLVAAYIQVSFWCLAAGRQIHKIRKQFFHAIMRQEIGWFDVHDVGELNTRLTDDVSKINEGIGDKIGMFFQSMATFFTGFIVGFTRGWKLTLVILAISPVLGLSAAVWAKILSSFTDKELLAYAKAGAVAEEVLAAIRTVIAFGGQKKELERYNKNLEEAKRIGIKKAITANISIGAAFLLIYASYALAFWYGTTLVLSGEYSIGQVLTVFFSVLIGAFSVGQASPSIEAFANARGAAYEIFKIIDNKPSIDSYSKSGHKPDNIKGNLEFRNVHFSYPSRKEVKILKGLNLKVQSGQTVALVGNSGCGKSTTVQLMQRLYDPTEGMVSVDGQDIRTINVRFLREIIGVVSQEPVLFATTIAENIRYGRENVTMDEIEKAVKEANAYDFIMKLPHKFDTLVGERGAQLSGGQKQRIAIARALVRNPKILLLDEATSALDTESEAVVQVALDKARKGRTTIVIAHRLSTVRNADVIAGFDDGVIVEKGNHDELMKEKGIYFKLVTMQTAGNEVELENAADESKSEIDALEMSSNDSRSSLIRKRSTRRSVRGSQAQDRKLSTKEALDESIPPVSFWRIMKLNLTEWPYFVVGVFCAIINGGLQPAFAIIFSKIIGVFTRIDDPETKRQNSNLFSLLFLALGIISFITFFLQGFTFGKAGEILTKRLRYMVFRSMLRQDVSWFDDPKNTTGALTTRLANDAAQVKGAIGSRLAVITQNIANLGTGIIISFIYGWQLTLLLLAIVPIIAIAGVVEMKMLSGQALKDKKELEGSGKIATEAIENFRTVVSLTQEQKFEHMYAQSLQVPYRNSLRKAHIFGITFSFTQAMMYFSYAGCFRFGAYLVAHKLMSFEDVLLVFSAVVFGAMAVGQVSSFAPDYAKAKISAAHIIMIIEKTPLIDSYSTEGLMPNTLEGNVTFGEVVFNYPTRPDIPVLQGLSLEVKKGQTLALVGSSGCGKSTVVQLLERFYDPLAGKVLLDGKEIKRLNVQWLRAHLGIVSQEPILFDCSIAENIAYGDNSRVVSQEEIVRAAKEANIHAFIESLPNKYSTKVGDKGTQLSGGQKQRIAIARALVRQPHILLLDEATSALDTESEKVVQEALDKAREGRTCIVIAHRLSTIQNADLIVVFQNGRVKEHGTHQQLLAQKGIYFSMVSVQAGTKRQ
2D6, sequence (P10635 whole entry): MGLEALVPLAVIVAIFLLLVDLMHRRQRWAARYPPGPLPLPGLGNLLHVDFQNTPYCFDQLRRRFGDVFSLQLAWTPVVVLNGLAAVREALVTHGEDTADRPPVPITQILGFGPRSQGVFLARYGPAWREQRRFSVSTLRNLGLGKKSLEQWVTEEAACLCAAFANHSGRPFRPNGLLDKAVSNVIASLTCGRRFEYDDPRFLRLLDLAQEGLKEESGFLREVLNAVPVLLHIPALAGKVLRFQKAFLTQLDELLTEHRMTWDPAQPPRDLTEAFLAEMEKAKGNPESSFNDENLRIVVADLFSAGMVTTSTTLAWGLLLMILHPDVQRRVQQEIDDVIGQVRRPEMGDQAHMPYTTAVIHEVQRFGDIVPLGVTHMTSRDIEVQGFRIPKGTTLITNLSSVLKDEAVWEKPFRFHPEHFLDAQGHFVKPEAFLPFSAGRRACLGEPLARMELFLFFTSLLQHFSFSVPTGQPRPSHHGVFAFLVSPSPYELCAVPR
2C9, sequence (P11712 whole entry): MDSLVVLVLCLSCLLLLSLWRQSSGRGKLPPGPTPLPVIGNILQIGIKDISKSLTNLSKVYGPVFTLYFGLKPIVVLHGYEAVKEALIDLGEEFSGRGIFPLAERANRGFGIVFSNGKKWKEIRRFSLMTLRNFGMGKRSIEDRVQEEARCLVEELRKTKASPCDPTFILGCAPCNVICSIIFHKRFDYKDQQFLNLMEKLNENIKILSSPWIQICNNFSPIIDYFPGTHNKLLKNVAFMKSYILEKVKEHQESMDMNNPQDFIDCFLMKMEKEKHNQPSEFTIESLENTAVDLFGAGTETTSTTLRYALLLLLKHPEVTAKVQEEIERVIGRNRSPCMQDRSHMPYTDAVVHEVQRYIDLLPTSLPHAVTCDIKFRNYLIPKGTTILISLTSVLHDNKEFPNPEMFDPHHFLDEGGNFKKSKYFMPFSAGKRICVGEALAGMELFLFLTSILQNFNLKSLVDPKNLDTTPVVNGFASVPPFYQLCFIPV
2C19, sequence (P33261 whole entry): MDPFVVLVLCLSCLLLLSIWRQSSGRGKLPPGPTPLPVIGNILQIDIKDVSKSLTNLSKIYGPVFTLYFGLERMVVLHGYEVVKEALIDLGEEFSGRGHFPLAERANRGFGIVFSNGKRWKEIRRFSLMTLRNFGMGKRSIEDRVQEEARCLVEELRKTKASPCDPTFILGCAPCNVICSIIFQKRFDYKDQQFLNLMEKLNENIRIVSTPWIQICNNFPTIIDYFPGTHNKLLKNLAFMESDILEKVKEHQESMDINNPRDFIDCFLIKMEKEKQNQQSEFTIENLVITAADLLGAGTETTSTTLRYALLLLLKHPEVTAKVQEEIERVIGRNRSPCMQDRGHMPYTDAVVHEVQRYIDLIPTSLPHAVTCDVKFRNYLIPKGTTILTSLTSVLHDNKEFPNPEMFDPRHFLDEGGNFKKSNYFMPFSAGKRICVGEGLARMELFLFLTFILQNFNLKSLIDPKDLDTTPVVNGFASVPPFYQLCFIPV
human ether-à-go-go-related gene (hERG) channel, sequence (Q12809 whole entry): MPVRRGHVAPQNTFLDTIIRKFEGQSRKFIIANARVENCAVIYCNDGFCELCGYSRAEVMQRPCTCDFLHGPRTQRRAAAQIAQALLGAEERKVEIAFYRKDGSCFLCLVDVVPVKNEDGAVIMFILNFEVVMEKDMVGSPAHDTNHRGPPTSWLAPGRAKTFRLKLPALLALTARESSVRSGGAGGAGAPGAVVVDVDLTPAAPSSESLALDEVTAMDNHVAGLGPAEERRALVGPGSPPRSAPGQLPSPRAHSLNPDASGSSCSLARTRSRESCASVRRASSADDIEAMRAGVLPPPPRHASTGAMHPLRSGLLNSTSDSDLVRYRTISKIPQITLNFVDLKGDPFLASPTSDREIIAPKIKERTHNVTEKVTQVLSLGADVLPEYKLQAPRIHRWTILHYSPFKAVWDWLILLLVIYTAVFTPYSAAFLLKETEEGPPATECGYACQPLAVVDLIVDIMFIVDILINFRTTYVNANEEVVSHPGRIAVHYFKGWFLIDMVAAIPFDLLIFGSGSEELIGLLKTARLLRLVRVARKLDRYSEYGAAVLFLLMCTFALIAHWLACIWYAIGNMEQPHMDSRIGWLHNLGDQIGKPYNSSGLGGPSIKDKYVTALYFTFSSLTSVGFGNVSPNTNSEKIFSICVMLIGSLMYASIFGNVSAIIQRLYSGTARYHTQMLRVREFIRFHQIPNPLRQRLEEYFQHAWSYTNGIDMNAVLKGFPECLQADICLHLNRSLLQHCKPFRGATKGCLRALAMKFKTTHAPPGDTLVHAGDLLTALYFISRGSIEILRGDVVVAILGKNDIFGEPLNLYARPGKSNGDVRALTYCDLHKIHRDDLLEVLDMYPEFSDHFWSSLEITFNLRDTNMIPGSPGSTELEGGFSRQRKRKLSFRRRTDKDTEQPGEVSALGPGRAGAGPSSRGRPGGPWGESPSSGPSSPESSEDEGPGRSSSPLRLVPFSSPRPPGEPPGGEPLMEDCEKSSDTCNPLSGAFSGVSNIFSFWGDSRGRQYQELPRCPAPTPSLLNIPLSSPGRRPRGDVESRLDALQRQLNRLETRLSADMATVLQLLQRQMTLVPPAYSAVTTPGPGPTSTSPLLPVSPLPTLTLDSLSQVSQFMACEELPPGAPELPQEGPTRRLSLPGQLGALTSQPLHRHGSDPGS
2E1, sequence (P05181 whole entry): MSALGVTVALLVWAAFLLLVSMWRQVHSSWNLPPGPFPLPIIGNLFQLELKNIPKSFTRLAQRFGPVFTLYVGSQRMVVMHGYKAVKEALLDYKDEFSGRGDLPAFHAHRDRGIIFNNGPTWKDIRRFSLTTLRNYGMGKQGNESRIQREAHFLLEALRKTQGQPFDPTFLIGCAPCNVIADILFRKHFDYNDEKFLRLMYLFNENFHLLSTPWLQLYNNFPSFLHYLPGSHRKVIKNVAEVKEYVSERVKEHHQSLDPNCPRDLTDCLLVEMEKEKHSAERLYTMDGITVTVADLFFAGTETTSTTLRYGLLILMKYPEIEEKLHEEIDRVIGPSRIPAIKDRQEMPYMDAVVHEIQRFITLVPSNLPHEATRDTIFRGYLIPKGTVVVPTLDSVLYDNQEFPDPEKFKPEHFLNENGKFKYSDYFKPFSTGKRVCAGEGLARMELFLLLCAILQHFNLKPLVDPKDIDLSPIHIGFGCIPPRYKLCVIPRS
CYP3A4, sequence (P08684 whole entry, canonical isoform): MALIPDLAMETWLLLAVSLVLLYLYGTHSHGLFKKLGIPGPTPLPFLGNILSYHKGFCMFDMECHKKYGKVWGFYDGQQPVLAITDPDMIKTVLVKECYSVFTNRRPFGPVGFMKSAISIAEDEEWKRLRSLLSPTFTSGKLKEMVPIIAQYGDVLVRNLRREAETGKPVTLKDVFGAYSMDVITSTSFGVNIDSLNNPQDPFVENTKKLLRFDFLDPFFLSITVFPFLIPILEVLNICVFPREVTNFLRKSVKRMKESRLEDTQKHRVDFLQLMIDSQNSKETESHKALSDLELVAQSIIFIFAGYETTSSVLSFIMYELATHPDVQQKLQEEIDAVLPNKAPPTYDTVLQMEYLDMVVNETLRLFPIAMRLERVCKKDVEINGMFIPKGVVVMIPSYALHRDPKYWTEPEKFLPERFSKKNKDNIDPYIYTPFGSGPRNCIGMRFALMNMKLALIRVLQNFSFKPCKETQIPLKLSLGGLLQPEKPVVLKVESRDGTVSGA
3A4, sequence (P08684 whole entry): as the sequence (P08684 whole entry, canonical isoform) above

Question: With OCCN1CCCC1 [1-(2-Hydroxyethyl)-pyrrolidine] as the compound, how does the pKa1 [1, 32] read?
Answer: 9.4

Question: With [NH2][Pt]1([NH2])[O]C(=O)C2(CCC2)C(=O)[O]1 [Carboplatin, platinum, diamine[1,1-cyclobutanedicarboxylato(2-)-O,O′]-(SP-4-2)] as the compound, how does the “pH of a 1% solution” value ([2]; 1% solution) read?
Answer: 5-7

Question: And the “solubility in ethanol, acetone, and dimethylacetamide” value ([2]; ethanol, acetone, dimethylacetamide)?
Answer: virtually insoluble

Question: What about the solubility in water ([2]; water) of the same compound?
Answer: approximately 14 mg/mL

Question: Which pKa1 [1, 33] does the source give for C[N+](C)(C)CCO [Choline] here?
Answer: >11.0

Question: Which “inhibition of endothelial recruitment” value [3] does the source give for C[C@H](CCOc1cccc(CC(=O)O)c1)N(Cc1cccc(C(F)(F)F)c1Cl)CC(c1ccccc1)c1ccccc1 [Compound 1, 2-[3-[(3R)-3-[[2-chloro-3-(trifluoromethyl)phenyl]methyl-(2,2-diphenylethyl)amino]butoxy]phenyl]acetic acid] here?
Answer: ~50%

Question: And the EC50 [4]?
Answer: 385 nM

Question: And the “induction of ApoE gene expression” value ([4]; compared to control cells)?
Answer: 3 fold

Question: And the EC50 ([5]; Homo sapiens)?
Answer: 271 nM

Question: What about the “induction of ApoE gene expression” value ([5]; compared to control cells) of the same compound?
Answer: up to 40 fold

Question: And the “exposures at minimum efficacious doses” value ([6]; 25-40 mg/kg/day PO)?
Answer: 10,000-50,000 ng-h/mL

Question: What about the minimum efficacious doses ([6]; administered orally (PO), tumor growth studies) of the same compound?
Answer: 25 to 40 mg/kg/day

Question: What about the hERG channel conductance [7] of the same compound?
Answer: significant increase, but not inhibition

Question: And the “effects on qualitative ECG parameters (PR or QTc intervals or QRS duration)” value [8]?
Answer: no Compound 1-related effects

Question: And the mean heart rate ([8]; Day 1 post-dose interval, significant in females at 150 (stepped down to 100) mg/kg/day)?
Answer: dose related decrease

Question: What about the “neurobehavioral FOB or respiratory evaluations” value [9] of the same compound?
Answer: no adverse effects

Question: What about the “food effect: plasma concentrations fed state” value [10] of the same compound?
Answer: > 2 fold

Question: What about the “mean apparent oral t %” value ([11]; female rats) of the same compound?
Answer: 6.5 h

Question: What about the “clearance, females versus males” value ([11]; rats) of the same compound?
Answer: cleared at a lower rate in female rats compared to males

Question: What about the “mean apparent oral t %” value [12] of the same compound?
Answer: 5 to 6.7 h

Question: And the “Mean oral t %” value [13]?
Answer: 5.5 to 8 h

Question: What about the “metabolism by CYP3A4” value [14] of the same compound?
Answer: metabolized predominantly

Question: What about the “substrate for other CYP isoforms” value [15] of the same compound?
Answer: also a substrate

Question: And the “inhibition of 1A1” value [16]?
Answer: very weakly inhibited

Question: And the “inhibition of 2A6” value [17]?
Answer: very weakly inhibited

Question: And the “inhibition of 2C9” value [18]?
Answer: very weakly inhibited

Question: And the “inhibition of 2C19” value [19]?
Answer: very weakly inhibited

Question: And the “inhibition of 2D6” value [20]?
Answer: very weakly inhibited

Question: What about the “inhibition of 2E1” value [21] of the same compound?
Answer: very weakly inhibited

Question: What about the “inhibition of 3A4” value [22] of the same compound?
Answer: very weakly inhibited

Question: What about the “CYP3A time-dependent inhibition (TDI)” value [23] of the same compound?
Answer: time-dependent inhibition (TDI) was demonstrated

Question: What about the “induction of CYP3A” value [24] of the same compound?
Answer: Induction of CYP3A by Compound 1 was demonstrated

Question: What about the “induction of CYP2B6” value [25] of the same compound?
Answer: > 2 fold

Question: And the “inhibition of P-gp” value [26]?
Answer: does not inhibit

Question: And the “potential risks based on animal toxicology studies” value ([27]; animal toxicology studies)?
Answer: elevations in serum cholesterol and TG, neutropenia/leukopenia, nausea and/or vomiting, elevations in liver enzymes, development or worsening of cataracts, cardiac rhythm disturbances and/or reduced cardiac function, harderian gland adenocarcinoma, and/or generalized edema

Question: What about the “liver function in pre-clinical toxicity studies” value ([27]; pre-clinical toxicity studies) of the same compound?
Answer: Liver function abnormalities have been observed

Question: And the “dose limiting toxicity on single agent therapy” value ([28]; Compound 1 single agent therapy)?
Answer: DLT of Grade 4 neutropenia

Question: And the “hyperlipidemia in treated subjects” value ([28]; subjects treated with Compound 1)?
Answer: hyperlipidemia has been observed

Question: What about the “solubility in solvents/solvent mixtures” value [29] of the same compound?
Answer: Dissolution was observed in most of the samples

Question: What about the “induction of CYP1A2” value [30] of the same compound?
Answer: did not induce

Question: With OCCNCCO [Diethanolamine] as the compound, how does the pKa1 [1, 33] read?
Answer: 9.5

Question: For O=S(=O)(O)CCS(=O)(=O)O [Ethane-1,2-disulfonic acid], which pKa1 [1, 33] is on record?
Answer: −2.1

Question: For CCS(=O)(=O)O [Ethanesulfonic acid], which pKa1 [1, 33] is on record?
Answer: −1.6

Question: With O=C(O)CNC(=O)c1ccccc1 [Hippuric acid] as the compound, how does the pKa1 [1, 32] read?
Answer: 3.6

Question: With N[C@@H](Cc1c[nH]cn1)C(=O)O [Histidine] as the compound, how does the pKa1 [1, 32] read?
Answer: 9.2

Question: With N=C(N)NCCC[C@H](N)C(=O)O [L-Arginine] as the compound, how does the pKa1 [1, 33] read?
Answer: 9.0

Question: With NCCCC[C@H](N)C(=O)O [L-Lysine] as the compound, how does the pKa1 [1, 32] read?
Answer: 9.2

Question: For O=S(=O)(O)c1ccc2ccccc2c1 [Naphthalene-2-sulfonic acid], which pKa1 [1, 33] is on record?
Answer: 0.17

Question: With O=[N+]([O-])O [Nitric acid] as the compound, how does the pKa1 [1, 33] read?
Answer: −1.3

Question: Which pKa1 [1, 32] does the source give for O=C(O)c1cc2ccccc2c(Cc2c(O)c(C(=O)O)cc3ccccc23)c1O [Pamoic acid] here?
Answer: 2.5

Question: For O=S(=O)([O-])CCS(=O)(=O)[O-].[Na+].[Na+] [Sodium edisylate], which pKa1 [1, 32] is on record?
Answer: −2.1

Question: With O=S(=O)([O-])CCO.[Na+] [Sodium isethionate] as the compound, how does the pKa1 [1, 32] read?
Answer: 1.7

Question: For N#CS [Thiocyanic acid], which pKa1 [1, 32] is on record?
Answer: −1.3

Question: For CS(=O)(=O)O [methanesulfonic acid], which “stability of strong acid salts” value [31] is on record?
Answer: prone to instability

Question: What about the “stability towards excipients and/or components of a formulation” value [31] of the same compound?
Answer: unstable

Question: Which “stability of strong acid salts” value [31] does the source give for H2SO4 [Compound H2SO4] here?
Answer: prone to instability

Question: What about the “stability towards excipients and/or components of a formulation” value [31] of the same compound?
Answer: unstable
